Values of other authors in patent US20060233724A1, “Medicinal composition for peridontal pocket administration containing bisphosphonic acid derivative or its salt as the active ingredient” (Toray Industries, Inc., priority 2002, published 2006).
Like-named read-outs stand apart in the source and are kept apart here.

Legend:
[1] = system: experimental movement of molars; conditions: rat
[2] = system: destruction of alveolar bone; conditions: simian periodontal disease model, oral administration
[3] = system: destruction of alveolar bone; conditions: canine periodontal disease model, oral administration
[4] = system: involution of alveolar bone, attachment level; conditions: canine periodontal disease models, subcutaneous or oral administration
[5] = system: involution of alveolar bone; conditions: hamster periodontal disease models

O=P(O)(O)C(O)(Cc1cccnc1)P(=O)(O)O [risedronate, 1-hydroxy-2-(3-pyridyl)ethylidene-1,1-bisphosphonic acid]
effect in experimental movement of molars ([1]; local administration to the vicinity of first molar): effective

NCCCC(O)(P(=O)(O)O)P(=O)(O)O [alendronate, 4-amino-1-hydroxybutylidene-1,1-bisphosphonic acid]
destruction of alveolar bone [2]: inhibited destruction of alveolar bone | destruction of alveolar bone [3]: inhibited destruction of alveolar bone

NCCC(O)(P(=O)(O)O)P(=O)(O)O [pamidronate]
effect in experimental movement of molars ([1]; local submucosal administration to the palate): effective

O=P(O)(O)C(NC1CCCCCC1)P(=O)(O)O [Incadronate disodium, 1-(cycloheptylamino) methylidene-1,1-bisphosphonic acid]
attachment level [4]: action of improvement in attachment level | involution of alveolar bone [4]: action against involution of alveolar bone | involution of alveolar bone [5]: exhibits inhibiting action against involution of alveolar bone
